Values quoted from earlier work in patent publication US6960597B2, “Aza-bridged-bicyclic amino acid derivatives as α4 integrin antagonists” (Orth-McNeil Pharmaceutical, Inc., priority 2000, dated 2005).
pIC50: −log10 of the molar value.

Assays:
[1] = test system: heterotopic heart allograft; conditions: hyperlipidemic rabbit; cited from earlier work
[2] = target: α4β1 (Homo sapiens, UniProt P05556+P13612); conditions: cited from earlier work
[3] = test system: oxazolone-induced contact hypersensitivity; conditions: mouse; 6 mg/kg, sc; cited from earlier work

Chain of α4β1 (P13612 34-1032): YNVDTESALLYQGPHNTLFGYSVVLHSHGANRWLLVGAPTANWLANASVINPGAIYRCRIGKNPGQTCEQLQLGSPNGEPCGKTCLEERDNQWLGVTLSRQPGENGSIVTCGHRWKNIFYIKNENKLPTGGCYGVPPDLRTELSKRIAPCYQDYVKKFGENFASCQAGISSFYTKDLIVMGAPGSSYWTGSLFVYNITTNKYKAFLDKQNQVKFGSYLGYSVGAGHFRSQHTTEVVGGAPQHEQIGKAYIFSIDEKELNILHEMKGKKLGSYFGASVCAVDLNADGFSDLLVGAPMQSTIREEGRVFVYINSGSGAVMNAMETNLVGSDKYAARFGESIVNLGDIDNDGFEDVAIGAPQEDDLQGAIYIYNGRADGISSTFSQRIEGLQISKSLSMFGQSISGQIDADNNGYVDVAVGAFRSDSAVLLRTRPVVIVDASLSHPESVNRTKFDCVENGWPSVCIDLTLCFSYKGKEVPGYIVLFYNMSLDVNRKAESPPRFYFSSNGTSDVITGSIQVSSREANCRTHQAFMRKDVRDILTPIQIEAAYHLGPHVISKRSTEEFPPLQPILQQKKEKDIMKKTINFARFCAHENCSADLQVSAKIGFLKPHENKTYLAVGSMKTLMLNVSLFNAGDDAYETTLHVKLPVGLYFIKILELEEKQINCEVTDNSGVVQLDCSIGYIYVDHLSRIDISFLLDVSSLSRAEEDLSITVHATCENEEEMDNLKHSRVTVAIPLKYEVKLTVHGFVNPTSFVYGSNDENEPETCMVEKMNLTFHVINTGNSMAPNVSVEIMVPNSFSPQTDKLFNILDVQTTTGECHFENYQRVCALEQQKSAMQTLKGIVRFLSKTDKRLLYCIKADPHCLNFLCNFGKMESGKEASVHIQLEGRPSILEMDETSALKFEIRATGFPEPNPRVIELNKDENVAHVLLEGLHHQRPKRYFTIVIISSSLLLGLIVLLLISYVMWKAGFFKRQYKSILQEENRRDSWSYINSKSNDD
Chain of α4β1 (P05556 21-798): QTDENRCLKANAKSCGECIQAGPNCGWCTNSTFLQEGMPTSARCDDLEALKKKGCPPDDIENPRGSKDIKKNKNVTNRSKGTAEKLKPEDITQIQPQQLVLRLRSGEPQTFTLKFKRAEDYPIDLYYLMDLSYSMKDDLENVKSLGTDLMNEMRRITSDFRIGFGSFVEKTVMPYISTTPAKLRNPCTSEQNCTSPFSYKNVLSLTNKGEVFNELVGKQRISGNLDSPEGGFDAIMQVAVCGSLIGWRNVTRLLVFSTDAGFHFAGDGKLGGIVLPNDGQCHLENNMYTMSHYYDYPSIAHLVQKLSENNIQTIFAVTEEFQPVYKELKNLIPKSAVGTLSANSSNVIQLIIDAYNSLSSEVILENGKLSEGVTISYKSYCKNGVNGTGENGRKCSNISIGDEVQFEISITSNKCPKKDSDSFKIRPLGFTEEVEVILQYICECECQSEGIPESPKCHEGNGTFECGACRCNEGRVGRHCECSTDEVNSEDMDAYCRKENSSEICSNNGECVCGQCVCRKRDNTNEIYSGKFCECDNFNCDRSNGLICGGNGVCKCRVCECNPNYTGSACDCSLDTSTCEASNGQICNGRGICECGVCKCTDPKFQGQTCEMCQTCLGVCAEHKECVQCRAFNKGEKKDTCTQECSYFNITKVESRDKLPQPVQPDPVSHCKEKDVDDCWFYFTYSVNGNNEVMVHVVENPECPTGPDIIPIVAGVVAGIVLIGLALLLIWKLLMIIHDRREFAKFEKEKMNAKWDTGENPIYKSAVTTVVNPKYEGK

Substance: Phenylacetyl-Leu-Asp-Phe-D-Pro-NH2
- efficacy in heterotopic heart allograft model [1]: effective
- pIC50 [2]: 5.70
- efficacy in oxazolone-induced contact hypersensitivity [3]: efficacy similar to the α4 antibody PS/2
